From article PMC5830302 (ACS chemical biology, 2017)

Molecular target: ClbQ (Escherichia coli, UniProt Q0P7K7)
Experiment: DTNB-based continuous spectrophotometric thioesterase assay
Format: biochemical
Settings: 100 mM Tris HCl, pH 7.4, 20 mM NaCl, 100 uM DTNB, 100 nM ClbQ, 37 °C

SMILES | DTNB-based continuous spectrophotometric thioesterase assay (412 nm)
CC(=O)NCCSC(C)=O [acetyl-SNAC] | ClbQ has thioesterase activity with model straight-chain acyl-SNACs
CCCCCCCCCCCCCC(=O)SCCNC(C)=O [myristoyl-SNAC] | ClbQ has thioesterase activity with model straight-chain acyl-SNACs
